Source: PubChem BioAssay AID258 (DTP/NCI, 2004)
Where “and” joins values, the source holds several entries; their conditions need not be identical. Equal entries are not always repeated. Inconclusive results and toxic doses are left out.

Tested on: CD2F1 mice, L1210 leukemia sc, survival T/C
Test: NCI In Vivo Anticancer Drug Screen. Data for tumor model L1210 Leukemia (subcutaneous) in CD2F1 (CDF1) mice
Details: endpoint: median survival time, higher = longer survival
Method in brief: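 Mice with transplanted tumor dosed; survival/tumor size read; T/C vs vehicle controls.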

[1] = dose: 65.0 mg/kg/injection, schedule: Q01DX Z (sc), vehicle: methylcellulose (MC)
[2] = dose: 180.0 mg/kg/injection, schedule: Q01DX Z (sc), vehicle: methylcellulose (MC)

Question: Which T/C (dose: 8.6 mg/kg/injection, schedule: Q01DX009 (ip), vehicle: water) does the source give for `O=NNc1cnccn1` here?
Answer: 96 % of control

Question: What about the T/C (dose: 14.4 mg/kg/injection, schedule: Q01DX009 (ip), vehicle: water) of the same compound?
Answer: 104 % of control

Question: What about the T/C (dose: 24.0 mg/kg/injection, schedule: Q01DX009 (ip), vehicle: water) of the same compound?
Answer: 100 % of control

Question: What about the T/C (dose: 66.66 mg/kg/injection, schedule: Q01DX009 (ip), vehicle: water) of the same compound?
Answer: 95 % of control

Question: What about the T/C (dose: 66.67 mg/kg/injection, schedule: Q01DX009 (ip), vehicle: water) of the same compound?
Answer: 120 % of control

Question: Which T/C (dose: 0.78 mg/kg/injection, schedule: Q01DX009 (ip), vehicle: other) does the source give for `C[C@@](O)(/C=C/[C@H]1CC=CC(=O)O1)[C@@H](C[C@@H](O)\C=C/C=C\C=C\CO)OP(=O)(O)O` here?
Answer: 104 % of control

Question: What about the T/C (dose: 1.56 mg/kg/injection, schedule: Q01DX009 (ip), vehicle: other) of the same compound?
Answer: 116 % of control

Question: What about the T/C (dose: 3.13 mg/kg/injection, schedule: Q01DX009 (ip), vehicle: other) of the same compound?
Answer: 157 % of control

Question: What about the T/C (dose: 6.25 mg/kg/injection, schedule: Q01DX009 (ip), vehicle: other) of the same compound?
Answer: 197 % of control

Question: How did the T/C (dose: 833.0 mg/kg/injection, schedule: Q01DX Z (sc), vehicle: methylcellulose (MC)) turn out when `CCn1cnc2c(=S)nc[nH]c21` was run?
Answer: 120 % of control

Question: With `CCn1cnc2c(SC)ncnc21` as the compound, how does the T/C [1] read?
Answer: 100 % of control

Question: And the T/C (dose: 108.0 mg/kg/injection, schedule: Q01DX Z (sc), vehicle: methylcellulose (MC))?
Answer: 100 % of control

Question: And the T/C [2]?
Answer: 100 % of control

Question: Which T/C (dose: 5.0 mg/kg/injection, schedule: Q01DX009 (sc), vehicle: saline with Tween-80) does the source give for `S=c1nc[nH]c2nc[nH]c12` here?
Answer: 113 % of control

Question: And the T/C (dose: 5.0 mg/kg/injection, schedule: Q## X Z (sc), vehicle: other)?
Answer: 111 % of control

Question: And the T/C (dose: 8.4 mg/kg/injection, schedule: Q01DX Z (sc), vehicle: methylcellulose (MC))?
Answer: 100 % of control

Question: And the T/C (dose: 14.0 mg/kg/injection, schedule: Q01DX Z (ip), vehicle: other)?
Answer: 100 % of control

Question: And the T/C (dose: 14.0 mg/kg/injection, schedule: Q01DX Z (sc), vehicle: methylcellulose (MC))?
Answer: 100 % of control

Question: And the T/C (dose: 14.0 mg/kg/injection, schedule: Q01DX Z (sc), vehicle: other)?
Answer: 100 % of control

Question: What about the T/C (dose: 14.0 mg/kg/injection, schedule: Q## X Z (sc), vehicle: other) of the same compound?
Answer: 172 % of control

Question: What about the T/C (dose: 14.0 mg/kg/injection, schedule: Q#A X Z (sc), vehicle: other) of the same compound?
Answer: 111 % of control

Question: And the T/C (dose: 20.0 mg/kg/injection, schedule: Q01DX009 (sc), vehicle: saline with Tween-80)?
Answer: 167 % of control

Question: And the T/C (dose: 23.0 mg/kg/injection, schedule: Q01DX Z (ip), vehicle: other)?
Answer: 100 % of control

Question: And the T/C (dose: 23.0 mg/kg/injection, schedule: Q01DX Z (oral), vehicle: other)?
Answer: 110 % of control

Question: What about the T/C (dose: 23.0 mg/kg/injection, schedule: Q01DX Z (sc), vehicle: methylcellulose (MC)) of the same compound?
Answer: 109 % of control and 110 % of control

Question: What about the T/C (dose: 23.0 mg/kg/injection, schedule: Q02DX Z (sc), vehicle: other) of the same compound?
Answer: 100 % of control

Question: What about the T/C (dose: 23.0 mg/kg/injection, schedule: Q## X Z (sc), vehicle: other) of the same compound?
Answer: 161 % of control

Question: What about the T/C (dose: 23.0 mg/kg/injection, schedule: Q#A X Z (sc), vehicle: other) of the same compound?
Answer: 105 % of control

Question: And the T/C (dose: 25.0 mg/kg/injection, schedule: Q01DX Z (sc), vehicle: other)?
Answer: 112 % of control

Question: And the T/C (dose: 39.0 mg/kg/injection, schedule: Q01DX001 (sc), vehicle: other)?
Answer: 100 % of control

Question: And the T/C (dose: 39.0 mg/kg/injection, schedule: Q01DX Z (ip), vehicle: other)?
Answer: 100 % of control

Question: What about the T/C (dose: 39.0 mg/kg/injection, schedule: Q01DX Z (oral), vehicle: other) of the same compound?
Answer: 110 % of control

Question: And the T/C (dose: 39.0 mg/kg/injection, schedule: Q02DX Z (sc), vehicle: other)?
Answer: 111 % of control

Question: And the T/C (dose: 39.0 mg/kg/injection, schedule: Q07DX Z (sc), vehicle: other)?
Answer: 111 % of control

Question: What about the T/C (dose: 39.0 mg/kg/injection, schedule: Q#A X Z (sc), vehicle: other) of the same compound?
Answer: 166 % of control

Question: What about the T/C (dose: 40.0 mg/kg/injection, schedule: Q01DX009 (sc), vehicle: saline with Tween-80) of the same compound?
Answer: 151 % of control

Question: And the T/C (dose: 46.8 mg/kg/injection, schedule: Q01DX Z (sc), vehicle: other)?
Answer: 122 % of control

Question: And the T/C (dose: 50.0 mg/kg/injection, schedule: Q01DX Z (sc), vehicle: other)?
Answer: 175 % of control

Question: And the T/C (dose: 65.0 mg/kg/injection, schedule: Q01DX001 (sc), vehicle: other)?
Answer: 105 % of control

Question: What about the T/C [1] of the same compound?
Answer: 165 % of control

Question: What about the T/C (dose: 65.0 mg/kg/injection, schedule: Q02DX Z (sc), vehicle: other) of the same compound?
Answer: 111 % of control

Question: What about the T/C (dose: 65.0 mg/kg/injection, schedule: Q07DX Z (sc), vehicle: other) of the same compound?
Answer: 111 % of control

Question: What about the T/C (dose: 65.0 mg/kg/injection, schedule: Q## X Z (sc), vehicle: other) of the same compound?
Answer: 111 % of control

Question: What about the T/C (dose: 65.0 mg/kg/injection, schedule: Q#A X Z (sc), vehicle: other) of the same compound?
Answer: 177 % of control

Question: And the T/C (dose: 78.0 mg/kg/injection, schedule: Q01DX Z (sc), vehicle: other)?
Answer: 194 % of control

Question: And the T/C (dose: 80.0 mg/kg/injection, schedule: Q01DX009 (sc), vehicle: saline with Tween-80)?
Answer: 110 % of control

Question: What about the T/C (dose: 100.0 mg/kg/injection, schedule: Q01DX Z (sc), vehicle: other) of the same compound?
Answer: 162 % of control

Question: What about the T/C (dose: 108.0 mg/kg/injection, schedule: Q01DX001 (sc), vehicle: other) of the same compound?
Answer: 122 % of control

Question: And the T/C (dose: 108.0 mg/kg/injection, schedule: Q01DX Z (ip), vehicle: other)?
Answer: 175 % of control

Question: And the T/C (dose: 108.0 mg/kg/injection, schedule: Q01DX Z (oral), vehicle: other)?
Answer: 170 % of control

Question: And the T/C (dose: 108.0 mg/kg/injection, schedule: Q02DX Z (sc), vehicle: other)?
Answer: 200 % of control

Question: What about the T/C (dose: 108.0 mg/kg/injection, schedule: Q07DX Z (sc), vehicle: other) of the same compound?
Answer: 122 % of control

Question: What about the T/C (dose: 108.0 mg/kg/injection, schedule: Q## X Z (sc), vehicle: other) of the same compound?
Answer: 111 % of control

Question: And the T/C (dose: 130.0 mg/kg/injection, schedule: Q01DX Z (sc), vehicle: other)?
Answer: 177 % of control

Question: And the T/C (dose: 160.0 mg/kg/injection, schedule: Q01DX009 (sc), vehicle: saline with Tween-80)?
Answer: 89 % of control

Question: And the T/C (dose: 180.0 mg/kg/injection, schedule: Q01DX001 (sc), vehicle: other)?
Answer: 122 % of control

Question: What about the T/C [2] of the same compound?
Answer: 118 % of control

Question: What about the T/C (dose: 180.0 mg/kg/injection, schedule: Q02DX Z (sc), vehicle: other) of the same compound?
Answer: 172 % of control

Question: And the T/C (dose: 180.0 mg/kg/injection, schedule: Q07DX Z (sc), vehicle: other)?
Answer: 122 % of control

Question: And the T/C (dose: 180.0 mg/kg/injection, schedule: Q## X Z (sc), vehicle: other)?
Answer: 122 % of control

Question: What about the T/C (dose: 216.0 mg/kg/injection, schedule: Q01DX Z (sc), vehicle: other) of the same compound?
Answer: 166 % of control

Question: And the T/C (dose: 300.0 mg/kg/injection, schedule: Q01DX001 (sc), vehicle: other)?
Answer: 111 % of control

Question: What about the T/C (dose: 300.0 mg/kg/injection, schedule: Q01DX Z (sc), vehicle: other) of the same compound?
Answer: 150 % of control

Question: For `Nc1nc2c(ncn2C2CC(O)C(CO)O2)c(=O)[nH]1` (centres undefined), which T/C (dose: 31.0 mg/kg/injection, schedule: Q01DX Z (sc), vehicle: water) is on record?
Answer: 100 % of control

Question: How did the T/C (dose: 0.75 mg/kg/injection, schedule: Q01DX009 (ip), vehicle: saline) turn out when `NCCCNCCCCNC(=O)C(O)NC(=O)CCCCCCN=C(N)N` (centres undefined) was run?
Answer: 156 % of control

Question: And the T/C (dose: 1.5 mg/kg/injection, schedule: Q01DX009 (ip), vehicle: saline)?
Answer: 172 % of control

Question: What about the T/C (dose: 1.56 mg/kg/injection, schedule: Q01DX009 (ip), vehicle: saline) of the same compound?
Answer: 162 % of control and 183 % of control

Question: What about the T/C (dose: 3.0 mg/kg/injection, schedule: Q01DX009 (ip), vehicle: saline) of the same compound?
Answer: 192 % of control

Question: And the T/C (dose: 3.12 mg/kg/injection, schedule: Q01DX009 (ip), vehicle: saline)?
Answer: 198 % of control and 203 % of control

Question: And the T/C (dose: 4.0 mg/kg/injection, schedule: Q01DX001 (ip), vehicle: saline)?
Answer: 107 % of control

Question: And the T/C (dose: 4.0 mg/kg/injection, schedule: Q03HX008 (ip), vehicle: saline)?
Answer: 121 % of control

Question: And the T/C (dose: 6.0 mg/kg/injection, schedule: Q01DX009 (ip), vehicle: saline)?
Answer: 237 % of control

Question: What about the T/C (dose: 6.25 mg/kg/injection, schedule: Q01DX009 (ip), vehicle: saline) of the same compound?
Answer: 207 % of control and 235 % of control

Question: And the T/C (dose: 8.0 mg/kg/injection, schedule: Q01DX001 (ip), vehicle: saline)?
Answer: 103 % of control and 109 % of control

Question: And the T/C (dose: 12.0 mg/kg/injection, schedule: Q01DX009 (ip), vehicle: saline)?
Answer: 239 % of control

Question: What about the T/C (dose: 12.5 mg/kg/injection, schedule: Q01DX009 (ip), vehicle: saline) of the same compound?
Answer: 228 % of control and 231 % of control

Question: What about the T/C (dose: 16.0 mg/kg/injection, schedule: Q01DX001 (ip), vehicle: saline) of the same compound?
Answer: 107 % of control and 113 % of control

Question: And the T/C (dose: 25.0 mg/kg/injection, schedule: Q01DX009 (ip), vehicle: saline)?
Answer: 160 % of control and 220 % of control and 275 % of control

Question: What about the T/C (dose: 32.0 mg/kg/injection, schedule: Q01DX001 (ip), vehicle: saline) of the same compound?
Answer: 115 % of control and 123 % of control
